Ends that are not written are not given here.
Assays:
[1] = test system: polyclonal antibody ab6982; experiment: Epitope mapping of polyclonal antibody ab6982 against cyclic peptides of Ad5 fiber and hexon (peptide array); type: binding, rabbits; settings: cyclic peptides of fiber protein (clusters 1-7)
Excerpt: Polyclonal antibody ab6982 (Abcam) was generated by immunizing rabbits with purified AdV. It reacts with all capsid proteins of Ad5 including hexon, fiber and penton. It was shown that the antibody neutralizes Ad5 infection in a bioassay at 1000 adenovirus 5 particles/ml, a 50% inactivation of the adenovirus can be achieved at a 1/25,000 dilution of the antibody. In order to identify epitopic regions that could contain peptides for ab6982 paratope binding, the antibody was mapped against the sequences of fiber (NCBI Reference Sequence: AP 000226.1) and hexon protein (GenBank: BAG48782.1). […] The binding signal of this antibody to the array yielded several peptides that were aligned and clustered against the sequence of the protein. The peptide clusters were named cluster1-7 (fiber protein) and clusters8-16 (hexon protein) according to their ranked order of cyclic peptide hits (i.e. cluster contains the strongest binders, cluster2 the second strongest etc.). Below are the aligments of the corresponding peptides that bind to polyclonal antibody ab6982.

[2] = test system: IgG from human donors (anti-AAV antibodies); experiment: Screen for anti-AAV antibodies in human sera, 2452 linear 15-amino-acid AAV peptides on microarrays (Table 1); type: binding; parameters: key to group I: X: the deduplicated aggregate of the respective top 10 peptide hits for each donor was compiled and designated as group I; key to group II: X: the deduplicated aggregate of the respective top 25 peptide hits for each donor was compiled and designated as group II; key to group III: X: the deduplicated aggregate of the respective top 50 peptide hits for each donor was compiled and designated as group III; settings: human donor IgG binding to linear 15-amino-acid AAV peptides on microarray, fluorescence; for group I: membership in deduplicated aggregate of top 10 peptide hits for each donor; for group II: membership in deduplicated aggregate of top 25 peptide hits for each donor; for group III: membership in deduplicated aggregate of top 50 peptide hits for each donor
In short: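 Peptide hits were grouped I to IV by pooling each donor's top 10, 25, 50 or 250 background-corrected fluorescence signals, after deduplication. Signals came from donor IgG, purified on protein G, bound to arrayed 15-residue linear peptides (2452 total) spanning 16 AAV sequences.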

Row | Sequence | antibody binding signal ranking from the microarray experiment [1] | group I [2] | group II [2] | group III [2]
1 | APGKKRPVEHSPVE (REGION 1..14: note = peptide derived from viral capsid protein) [SEQ ID NO: 1999] | 061 | X | X | X
2 | PVDQSPQEPDSSSG [SEQ ID NO: 1991] | 005 | X | X | X
3 | QVKEVTTNDGVTTI (REGION 1..14: note = peptide derived from viral capsid protein) [SEQ ID NO: 2048] | 173 | – | X | X
4 | TVQIFADSTYELPY [SEQ ID NO: 2039] | 093 | – | X | X
5 | EGASYQVPPQPNGM [SEQ ID NO: 2061] | 108 | – | X | X
6 | EEEIKATNPVATER [SEQ ID NO: 2045] | 148 | – | X | X
7 | HSQSLDRLMNPLLD [SEQ ID NO: 2051] | 008 | – | X | X
8 | RDTDMFGQIADNNQ [SEQ ID NO: 2037] | 073 | – | X | X
9 | EYRTTRPIGTRYLT [SEQ ID NO: 2062] | 134 | – | X | X
10 | YNLQEIVPGSVWME [SEQ ID NO: 2063] | 143 | – | X | X
11 | KKRILEPLGLVEEA [SEQ ID NO: 2023] | 023 | – | X | X
12 | PEPADVFMIPQYGY [SEQ ID NO: 2029] | 029 | – | X | X
13 | QIFADSSYELPYVM [SEQ ID NO: 2041] | 112 | – | X | X
14 | NLQAANLALGETTR [SEQ ID NO: 2020] | 016 | – | X | X
15 | FEKVPFHSMYAHSQ (REGION 1..14: note = peptide derived from viral capsid protein) [SEQ ID NO: 2031] | 058 | – | X | X
16 | DKFFPMSGVMIFGK (not fully specified) [SEQ ID NO: 2044] | 147 | – | X | X
17 | PQILIKNTPVPANP (REGION 1..14: note = peptide derived from viral capsid protein) [SEQ ID NO: 2006] | 006 | – | X | X
18 | KSNNVEFAVNTEGV [SEQ ID NO: 2016] | 009 | – | X | X
19 | RDWQRLINNNWGLR [SEQ ID NO: 2038] | 082 | – | X | X
20 | EEEIKTTNPVATES (REGION 1..14: note = peptide derived from viral capsid protein) [SEQ ID NO: 2014] | 123 | – | X | X
21 | ADPPTTFNQAKLAS [SEQ ID NO: 2009] | 060 | – | X | X
22 | AGDNVDYSSVMLTS [SEQ ID NO: 2010] | 065 | – | X | X
23 | MVPQYGYCGVVTGK [SEQ ID NO: 2035] | 070 | – | X | X
24 | SDSEYQLPYVLGSA [SEQ ID NO: 2050] | 197 | – | X | X

Row | Sequence | antibody binding signal ranking from the microarray experiment [1] | group I [2] | group II [2] | group III [2]
25 | MATNNQSLALGETT [SEQ ID NO: 2022] | 021 | – | X | X
26 | HKDDEEKFFPQSGV (REGION 1..14: note = peptide derived from viral capsid protein) [SEQ ID NO: 2002] | 150 | – | X | X
27 | ADPPTTFNQSKLNS [SEQ ID NO: 2024] | 032 | – | X | X
28 | GGQMATNNQSLALG [SEQ ID NO: 2021] | 020 | – | X | X
29 | TTSGETLNQGNAAT [SEQ ID NO: 2057] | 079 | – | X | X
30 | IEMRAAPGGNAVDA [SEQ ID NO: 2052] | 014 | – | X | X
31 | LFNIQVKEVTTNDG (REGION 1..14: note = peptide derived from viral capsid protein) [SEQ ID NO: 2047] | 172 | – | X | X
32 | NNFQFSYTFEDVPF (REGION 1..14: note = peptide derived from viral capsid protein) [SEQ ID NO: 1990] | 003 | X | X | X
33 | TVQVFTDSDYQLPY [SEQ ID NO: 2019] | 013 | – | X | X
34 | FSAARINSFLTQYS [SEQ ID NO: 2032] | 059 | – | X | X
35 | PVPANPPTTFSPAK [SEQ ID NO: 1992] | 010 | X | X | X
36 | NQTDRNAFYCLEYF [SEQ ID NO: 2036] | 072 | – | X | X
37 | MASHKDDEEKFFPM [SEQ ID NO: 1989] | 002 | X | X | X
38 | EFAWPGASSWALNG (REGION 1..14: note = peptide derived from viral capsid protein) [SEQ ID NO: 2015] | 126 | – | X | X
39 | QSSNTAPTTRTVND (REGION 1..14: note = peptide derived from viral capsid protein) [SEQ ID NO: 1994] | 024 | X | X | X
40 | DIYYQGPIWAKIPH (REGION 1..14: note = peptide derived from viral capsid protein) [SEQ ID NO: 2040] | 102 | – | X | X
41 | TVQIFADSSYELPY (REGION 1..14: note = peptide derived from viral capsid protein) [SEQ ID NO: 2043] | 136 | – | X | X
42 | DIYYQGPIWAKVPH [SEQ ID NO: 2030] | 030 | – | X | X
43 | TTSGTTNQSRLLFS (REGION 1..14: note = peptide derived from viral capsid protein) [SEQ ID NO: 1997] | 041 | X | X | X
44 | KRVLEPLGLVESPV [SEQ ID NO: 2012] | 085 | – | X | X
45 | THSTLDGRWSALTP (REGION 1..14: note = peptide derived from viral capsid protein) [SEQ ID NO: 2042] | 117 | – | X | X
46 | KRLNFEEDTGAGDG [SEQ ID NO: 2053] | 022 | – | X | X
47 | ANPGIAMATHKDDE [SEQ ID NO: 2060] | 100 | – | X | X

From patent publication US20250213707A1, “COMPOUND FOR INCREASING EFFICACY OF ONCOLYTIC VIRUSES” (ABLEVIA BIOTECH GMBH, priority 2022, published 2025)
